ChEMBL document CHEMBL1133555 (J Med Chem, 2000)

Key:
[1] = target: Sodium-dependent dopamine transporter (Rattus norvegicus, UniProt P23977); assay: Binding affinity for dopamine transporter (DAT) labeled with [125 I]RTI-55
[2] = target: Norepinephrine transporter (Rattus norvegicus, UniProt Q9WTR4); assay: Binding affinity for norepinephrine transporter (NET) labeled with [3H]nisoxetine
[3] = target: Sodium-dependent serotonin transporter (Rattus norvegicus, UniProt P31652); assay: Binding affinity for serotonin transporter labeled with [125 I]RTI-55
Sequence of Sodium-dependent serotonin transporter (P31652 whole entry): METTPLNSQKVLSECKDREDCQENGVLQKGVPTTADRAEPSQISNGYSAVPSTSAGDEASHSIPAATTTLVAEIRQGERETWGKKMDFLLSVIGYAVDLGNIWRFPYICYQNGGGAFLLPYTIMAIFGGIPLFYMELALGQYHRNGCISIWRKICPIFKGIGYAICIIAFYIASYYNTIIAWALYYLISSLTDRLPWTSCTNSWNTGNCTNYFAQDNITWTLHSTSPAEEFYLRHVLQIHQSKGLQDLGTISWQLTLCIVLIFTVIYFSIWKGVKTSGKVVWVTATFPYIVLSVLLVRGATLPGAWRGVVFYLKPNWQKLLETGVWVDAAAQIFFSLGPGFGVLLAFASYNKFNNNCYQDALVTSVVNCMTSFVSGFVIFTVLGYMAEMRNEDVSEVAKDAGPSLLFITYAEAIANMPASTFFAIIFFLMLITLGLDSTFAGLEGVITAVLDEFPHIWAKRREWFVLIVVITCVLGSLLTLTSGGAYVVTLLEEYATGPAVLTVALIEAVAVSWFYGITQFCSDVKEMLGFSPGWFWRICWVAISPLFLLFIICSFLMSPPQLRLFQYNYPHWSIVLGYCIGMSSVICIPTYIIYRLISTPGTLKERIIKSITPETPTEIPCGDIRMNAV

Sequence of Norepinephrine transporter (Q9WTR4 whole entry): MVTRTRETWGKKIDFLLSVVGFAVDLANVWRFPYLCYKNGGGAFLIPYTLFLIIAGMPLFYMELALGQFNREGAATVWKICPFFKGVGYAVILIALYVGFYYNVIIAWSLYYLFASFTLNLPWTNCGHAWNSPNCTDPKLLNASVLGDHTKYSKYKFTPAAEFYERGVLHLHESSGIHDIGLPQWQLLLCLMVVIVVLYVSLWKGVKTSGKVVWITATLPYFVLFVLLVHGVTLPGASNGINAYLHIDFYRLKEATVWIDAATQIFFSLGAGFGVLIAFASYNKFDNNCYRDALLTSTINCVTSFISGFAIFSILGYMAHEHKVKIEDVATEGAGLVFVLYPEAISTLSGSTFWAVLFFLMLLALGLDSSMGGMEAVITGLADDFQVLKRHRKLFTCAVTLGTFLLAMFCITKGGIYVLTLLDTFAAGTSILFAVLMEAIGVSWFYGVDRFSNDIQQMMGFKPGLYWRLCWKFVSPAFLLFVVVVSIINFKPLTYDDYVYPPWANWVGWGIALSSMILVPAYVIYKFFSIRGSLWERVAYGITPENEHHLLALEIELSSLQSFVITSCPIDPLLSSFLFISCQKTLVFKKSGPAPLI
Sequence of Sodium-dependent dopamine transporter (P23977 whole entry): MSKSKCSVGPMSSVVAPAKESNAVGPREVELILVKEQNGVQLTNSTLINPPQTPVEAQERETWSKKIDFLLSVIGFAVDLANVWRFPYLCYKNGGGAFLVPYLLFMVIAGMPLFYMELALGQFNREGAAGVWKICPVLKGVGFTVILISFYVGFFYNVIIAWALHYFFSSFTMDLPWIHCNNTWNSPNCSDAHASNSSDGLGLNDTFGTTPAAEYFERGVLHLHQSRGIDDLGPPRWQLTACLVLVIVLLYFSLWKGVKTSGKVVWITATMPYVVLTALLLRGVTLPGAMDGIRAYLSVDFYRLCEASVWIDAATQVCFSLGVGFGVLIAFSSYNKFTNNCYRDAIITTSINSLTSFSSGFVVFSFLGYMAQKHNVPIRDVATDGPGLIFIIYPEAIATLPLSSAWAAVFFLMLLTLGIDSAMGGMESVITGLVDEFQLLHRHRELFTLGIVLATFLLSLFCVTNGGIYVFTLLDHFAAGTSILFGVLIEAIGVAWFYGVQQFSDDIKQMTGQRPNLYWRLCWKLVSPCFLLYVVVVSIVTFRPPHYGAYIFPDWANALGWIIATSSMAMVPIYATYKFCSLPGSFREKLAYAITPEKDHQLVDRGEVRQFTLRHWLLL

Row | Structure (SMILES) | Ki [1] [µM] | Ki [2] [µM] | Ki [3] [µM]
1 | CN[C@@H]1CC(c2ccc(Cl)c(Cl)c2)c2cc(OC)ccc21 (stereo partly specified) | 0.0094 | 0.0765 | 0.0065
2 | CN[C@@H]1CC(c2ccc(Cl)c(Cl)c2OC)c2ccc(OC)cc21 (stereo partly specified) | 0.788 | 0.122 | 0.0056
3 | CN[C@@H]1CC(c2ccc(Cl)c(Cl)c2)c2ccc(OC)cc21 (stereo partly specified) | 0.0116 | 0.015 | 0.0011
4 | CN[C@@H]1CC(c2ccc(Cl)c(Cl)c2)c2c(OC)cccc21 (stereo partly specified) | 0.0017 | 0.027 | 0.063
5 | CN[C@@H]1CC(c2ccc(Cl)c(Cl)c2)c2cccc(OC)c21 (stereo partly specified) | 0.032 | 0.093 | 0.108
6 | CN[C@H]1c2cc(OC)ccc2C(c2ccc(Cl)c(Cl)c2)[C@@H]1O (stereo partly specified) | 1.13 | 1.69 | 0.0081
7 | CN[C@@H]1CC(c2ccc(Cl)c(Cl)c2)c2cc(OC)c(OC)cc21 (stereo partly specified) | 0.0036 | 0.102 | 0.061
